The values that follow come from US12559506B2, “Indazole based compounds and associated methods of use” (Arvinas Operations, Inc., priority 2021, dated 2026).

The target in this experiment is T1, LRRK2 (endogenous, HiBit tagged) (Homo sapiens, UniProt Q5S007).
T1 construct: endogenous in cells; host or cells: HEK293 cells with HiBit knock-in at the endogenous LRRK2 locus, stably expressing firefly luciferase
Nature of the experiment: Endogenous LRRK2 degradation assay, endogenous gene C-terminally HiBit-tagged in HEK293 cells (Nano-Glo Dual Luciferase). The class given is cell-based. In short, it runs like this:
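LRRK2-HiBit quantified via Nano-Glo Dual Luciferase in HEK293 knock-in cells co-expressing firefly luciferase, after 24 h exposure to compound (1 μM final top, 1:3, 11 points). Values normalised to DMSO median per plate and curve-fitted; Alamar Blue viability run alongside.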

Where [1] appears, read: endogenous HiBit-tagged LRRK2 in HEK293 cells, 24 hours treatment, read-out: Endogenous WT DC50.
[2] abbreviates: endogenous HiBit-tagged LRRK2 in HEK293 cells, 24 hours treatment, read-out: Endogenous WT Dmax.
Where [3] appears, read: endogenous HiBit-tagged LRRK2 in HEK293 cells, 24 hours treatment, read-out: **Endogenous WT Dmax (%).
[4] abbreviates: endogenous HiBit-tagged LRRK2 in HEK293 cells, 24 hours treatment, read-out: *Endogenous WT DC50.
[5] abbreviates: endogenous HiBit-tagged LRRK2, HEK293 cells, 24 hours, read-out: **Endogenous WT Dmax (%).
The mark [6] stands for this setting: endogenous HiBit-tagged LRRK2, HEK293 cells, 24 hours, read-out: *Endogenous WT DC50.

Read-outs that look alike come from different tables or passages of the source.

T1 sequence (Q5S007 whole entry): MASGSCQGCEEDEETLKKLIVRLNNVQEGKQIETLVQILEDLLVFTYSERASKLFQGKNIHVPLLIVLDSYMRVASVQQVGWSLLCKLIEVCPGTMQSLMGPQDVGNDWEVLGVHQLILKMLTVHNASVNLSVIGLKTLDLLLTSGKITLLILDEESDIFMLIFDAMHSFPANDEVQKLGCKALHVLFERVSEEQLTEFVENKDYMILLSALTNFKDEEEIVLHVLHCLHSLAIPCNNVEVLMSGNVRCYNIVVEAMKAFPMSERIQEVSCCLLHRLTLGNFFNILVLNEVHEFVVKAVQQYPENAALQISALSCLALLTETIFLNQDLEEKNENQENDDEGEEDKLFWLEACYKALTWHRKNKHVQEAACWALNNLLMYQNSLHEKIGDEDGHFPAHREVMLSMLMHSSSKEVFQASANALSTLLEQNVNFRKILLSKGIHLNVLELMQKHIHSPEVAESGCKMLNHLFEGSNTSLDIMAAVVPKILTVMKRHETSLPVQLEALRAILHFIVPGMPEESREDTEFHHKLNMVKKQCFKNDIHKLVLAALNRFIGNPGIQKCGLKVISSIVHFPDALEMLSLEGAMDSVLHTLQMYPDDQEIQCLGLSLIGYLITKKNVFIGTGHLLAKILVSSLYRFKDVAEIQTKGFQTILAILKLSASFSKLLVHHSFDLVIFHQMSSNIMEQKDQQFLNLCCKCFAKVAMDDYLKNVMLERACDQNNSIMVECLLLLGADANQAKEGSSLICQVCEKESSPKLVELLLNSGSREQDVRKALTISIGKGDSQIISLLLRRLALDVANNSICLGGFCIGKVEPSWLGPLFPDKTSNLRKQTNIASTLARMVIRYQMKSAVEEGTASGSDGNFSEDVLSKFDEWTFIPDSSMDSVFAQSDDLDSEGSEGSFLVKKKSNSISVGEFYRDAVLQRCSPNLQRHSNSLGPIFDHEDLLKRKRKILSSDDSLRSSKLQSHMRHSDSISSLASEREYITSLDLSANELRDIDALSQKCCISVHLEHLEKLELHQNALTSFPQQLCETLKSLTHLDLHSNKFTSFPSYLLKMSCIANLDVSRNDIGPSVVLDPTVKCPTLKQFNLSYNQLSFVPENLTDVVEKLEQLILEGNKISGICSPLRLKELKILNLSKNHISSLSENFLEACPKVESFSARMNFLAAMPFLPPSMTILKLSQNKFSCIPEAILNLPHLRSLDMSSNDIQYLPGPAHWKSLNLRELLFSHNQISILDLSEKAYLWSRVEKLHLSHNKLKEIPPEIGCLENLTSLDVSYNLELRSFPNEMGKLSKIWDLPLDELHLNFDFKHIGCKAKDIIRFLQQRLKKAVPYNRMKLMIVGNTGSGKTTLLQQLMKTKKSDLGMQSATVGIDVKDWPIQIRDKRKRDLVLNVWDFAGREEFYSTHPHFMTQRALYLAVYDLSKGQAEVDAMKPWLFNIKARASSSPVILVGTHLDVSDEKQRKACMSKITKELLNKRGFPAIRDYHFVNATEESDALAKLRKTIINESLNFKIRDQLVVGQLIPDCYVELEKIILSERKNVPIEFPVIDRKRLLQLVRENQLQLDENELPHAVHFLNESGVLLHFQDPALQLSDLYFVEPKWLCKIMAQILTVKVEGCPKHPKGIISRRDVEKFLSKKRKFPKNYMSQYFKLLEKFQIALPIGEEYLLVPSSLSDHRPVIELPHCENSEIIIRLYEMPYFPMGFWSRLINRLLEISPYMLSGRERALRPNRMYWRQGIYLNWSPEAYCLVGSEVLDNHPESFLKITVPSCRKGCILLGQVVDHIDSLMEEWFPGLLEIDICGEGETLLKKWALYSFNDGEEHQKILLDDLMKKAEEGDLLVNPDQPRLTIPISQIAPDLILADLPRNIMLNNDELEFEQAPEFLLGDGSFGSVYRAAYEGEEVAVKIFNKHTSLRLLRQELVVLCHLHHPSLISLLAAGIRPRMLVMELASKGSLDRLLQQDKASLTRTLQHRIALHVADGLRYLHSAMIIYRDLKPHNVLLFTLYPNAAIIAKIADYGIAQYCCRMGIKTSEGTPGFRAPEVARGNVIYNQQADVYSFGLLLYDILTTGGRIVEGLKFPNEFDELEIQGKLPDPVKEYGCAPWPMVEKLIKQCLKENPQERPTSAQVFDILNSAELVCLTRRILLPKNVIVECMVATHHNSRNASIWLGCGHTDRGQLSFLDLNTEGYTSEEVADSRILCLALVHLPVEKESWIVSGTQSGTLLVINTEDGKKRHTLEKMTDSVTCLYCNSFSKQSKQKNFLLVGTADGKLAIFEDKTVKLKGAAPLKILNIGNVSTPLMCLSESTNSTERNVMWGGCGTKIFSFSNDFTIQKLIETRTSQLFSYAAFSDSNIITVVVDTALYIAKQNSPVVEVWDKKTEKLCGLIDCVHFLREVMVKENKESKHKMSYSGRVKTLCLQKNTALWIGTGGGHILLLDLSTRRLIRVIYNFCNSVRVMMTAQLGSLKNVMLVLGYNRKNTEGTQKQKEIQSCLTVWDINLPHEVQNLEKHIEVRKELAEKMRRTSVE

As for `CC1(Oc2ccc3[nH]nc(-c4cc(N5CCC(CC6(F)CCN(CC7CCN(c8c(F)cc9c(c8F)CN(C8CCC(=O)NC8=O)C9=O)CC7)CC6)CC5)ncn4)c3c2)CC1` (centres unmarked) [Compound 223, 3-{4,6-difluoro-5-[4-({4-fluoro-4-[(1-{6-[5-(1-methylcyclopropoxy)-1H-indazol-3-yl]pyrimidin-4-yl}piperidin-4-yl)methyl]piperidin-1-yl}methyl)piperidin-1-yl]-1-oxo-2,3-dihydro-1H-isoindol-2-yl}piperidine-2,6-dione], the DC50 (as a rule, the midpoint of the concentration-degradation curve) under setting [1] fell in the range of 10 to 50 nM. In addition, under setting [2], the Dmax (commonly the greatest extent of degradation seen) fell in the range of 50 to 70%.
For `COc1c(C2CCN([C@H]3C[C@H](OC4CCN(c5cc(-c6[nH]nc7ccc(OC8(C)CC8)cc67)ncn5)CC4)C3)CC2)ccc2c1CN(C1CCC(=O)NC1=O)C2=O` (some centres unmarked) [Compound 329, 3-(4-methoxy-1-oxo-5-{1-[(1r,3r)-3-[(1-{6-[5-(1-methylcyclopropoxy)-2H-indazol-3-yl]pyrimidin-4-yl}piperidin-4-yl)oxy]cyclobutyl]piperidin-4-yl}-2,3-dihydro-1H-isoindol-2-yl)piperidine-2,6-dione], the Dmax under setting [3] lay in the range of 50 to 70%. The DC50 under setting [4] was < 10 nM.
Take `C[C@H]1CN(c2ccc3c(c2F)CN(C2CCC(=O)NC2=O)C3=O)CCN1C[C@H]1CC[C@H](OC2CCN(c3cc(-c4n[nH]c5ccc(OC6(C)CC6)cc45)ncn3)CC2)CC1` (stereo partly drawn) [Compound 346, 3-{4-fluoro-5-[(3S)-3-methyl-4-{[(1r,4r)-4-[(1-{6-[5-(1-methylcyclopropoxy)-1H-indazol-3-yl]pyrimidin-4-yl}piperidin-4-yl)oxy]cyclohexyl]methyl}piperazin-1-yl]-1-oxo-2,3-dihydro-1H-isoindol-2-yl}piperidine-2,6-dione]: the Dmax under setting [3] is 50 to 70%. The DC50 under setting [4] is < 10 nM.
The corresponding values for `CC1(Oc2cc3c(-c4cc(N5CCC(CN6CCC(F)(CN7CCN(c8ccc9c(c8F)CN(C8CCC(=O)NC8=O)C9=O)CC7)CC6)CC5)ncn4)n[nH]c3cn2)CC1` (centres unmarked) [Compound 343, 3-{4-fluoro-5-[4-({4-fluoro-1-[(1-{6-[5-(1-methylcyclopropoxy)-1H-pyrazolo[3,4-c]pyridin-3-yl]pyrimidin-4-yl}piperidin-4-yl)methyl]piperidin-4-yl}methyl)piperazin-1-yl]-1-oxo-2,3-dihydro-1H-isoindol-2-yl}piperidine-2,6-dione] are 50 to 70% and < 10 nM.
For the compound `COc1c(N2CCC(CN3CCN(CC4CCN(c5cc(-c6n[nH]c7cnc(OC8(C)CC8)cc67)ncn5)CC4)C(C)(C)C3)CC2)ccc2c1CN(C1CCC(=O)NC1=O)C2=O` (centres unmarked) [Compound 338, 3-{5-[4-({3,3-dimethyl-4-[(1-{6-[5-(1-methylcyclopropoxy)-1H-pyrazolo[3,4-c]pyridin-3-yl]pyrimidin-4-yl}piperidin-4-yl)methyl]piperazin-1-yl}methyl)piperidin-1-yl]-4-methoxy-1-oxo-2,3-dihydro-1H-isoindol-2-yl}piperidine-2,6-dione], the Dmax under setting [3] is 50 to 70%. Besides, under setting [4], the DC50 was < 10 nM.
Consider `C[C@H]1CN(c2cc(-c3n[nH]c4ccc(OC5(C)CC5)cc34)ncn2)CCN1CC1(F)CN(CC2CCN(c3ccc4c(c3)C(=O)N(C3CCC(=O)NC3=O)C4=O)CC2)C1` (stereo partly drawn) [Compound 123, 2-(2,6-dioxopiperidin-3-yl)-5-{4-[(3-fluoro-3-{[(2S)-2-methyl-4-{6-[5-(1-methylcyclopropoxy)-1H-indazol-3-yl]pyrimidin-4-yl}piperazin-1-yl]methyl}azetidin-1-yl)methyl]piperidin-1-yl}-2,3-dihydro-1H-isoindole-1,3-dione], for which, where the note is “endogenous HiBit-tagged LRRK2 in HEK293 cells, 24 hours, read-out: **Endogenous WT Dmax (%)”, the Dmax was < 50%. Also, the DC50 (endogenous HiBit-tagged LRRK2 in HEK293 cells, 24 hours, read-out: *Endogenous WT DC50) was < 10 nM.
Consider `COc1cc2c(cc1N1CCC(CN3CCN(CC4CCN(c5cc(-c6n[nH]c7ccc(OC8(C)CC8)cc67)ncn5)CC4)CC3)CC1)CN(C1CCC(=O)NC1=O)C2=O` (centres unmarked) [Compound 194, 3-[6-methoxy-5-[4-[[4-[[1-[6-[5-(1-methylcyclopropoxy)-1H-indazol-3-yl]pyrimidin-4-yl]-4-piperidyl]methyl]piperazin-1-yl]methyl]-1-piperidyl]-1-oxo-isoindolin-2-yl]piperidine-2,6-dione], for which the Dmax under setting [5] is ≥ 70%. Also, the DC50 under setting [6] is < 10 nM.
Take `COc1c(N2CCC(CN3CCN(C[C@@H]4CCN(c5cc(-c6n[nH]c7ccc(OC8(C)CC8)cc67)ncn5)C4)CC3)CC2)ccc2c1CN(C1CCC(=O)NC1=O)C2=O` (stereo partly drawn) [Compound 311, 3-(4-methoxy-5-{4-[(4-{[(3S)-1-{6-[5-(1-methylcyclopropoxy)-1H-indazol-3-yl]pyrimidin-4-yl}pyrrolidin-3-yl]methyl}piperazin-1-yl)methyl]piperidin-1-yl}-1-oxo-2,3-dihydro-1H-isoindol-2-yl)piperidine-2,6-dione]: the Dmax under setting [3] was in the range of 50 to 70%. Further, the DC50 under setting [4] is < 10 nM.
The corresponding values for `CC1(Oc2ccc3n[nH]c(-c4cc(N5CCN(C[C@H]6C[C@H](CN7CCN(c8ccc9c(c8F)CN(C8CCC(=O)NC8=O)C9=O)CC7)C6)CC5)ncn4)c3c2)CC1` (some centres unmarked) [Compound 334, 3-[4-fluoro-1-oxo-5-(4-{[(1r,3r)-3-[(4-{6-[5-(1-methylcyclopropoxy)-2H-indazol-3-yl]pyrimidin-4-yl}piperazin-1-yl)methyl]cyclobutyl]methyl}piperazin-1-yl)-2,3-dihydro-1H-isoindol-2-yl]piperidine-2,6-dione] are 50 to 70% and < 10 nM.
The corresponding values for `CC1(Oc2ccc3n[nH]c(-c4cc(N5CCC(O[C@H]6C[C@H](CN7CCN(c8ccc9c(c8F)CN(C8CCC(=O)NC8=O)C9=O)CC7)C6)CC5)ncn4)c3c2)CC1` (some centres unmarked) [Compound 351, 3-[4-fluoro-1-oxo-5-(4-{[(1r,3r)-3-[(1-{6-[5-(1-methylcyclopropoxy)-2H-indazol-3-yl]pyrimidin-4-yl}piperidin-4-yl)oxy]cyclobutyl]methyl}piperazin-1-yl)-2,3-dihydro-1H-isoindol-2-yl]piperidine-2,6-dione] are 50 to 70% and < 10 nM.
For the compound `COc1c(N2CCC(O[C@H]3CC[C@H](OC4CCN(c5cc(-c6n[nH]c7ccc(OC8(C)CC8)cc67)ncn5)CC4)CC3)CC2)ccc2c1CN(C1CCC(=O)NC1=O)C2=O` (some centres unmarked) [Compound 248, 3-[4-methoxy-1-oxo-5-(4-{[(1r,4r)-4-[(1-{6-[5-(1-methylcyclopropoxy)-1H-indazol-3-yl]pyrimidin-4-yl}piperidin-4-yl)oxy]cyclohexyl]oxy}piperidin-1-yl)-2,3-dihydro-1H-isoindol-2-yl]piperidine-2,6-dione], the DC50 under setting [1] was < 10 nM. Also, under setting [2], the Dmax lay in the range of 50 to 70%.
In the same order, the values of `CC1(Oc2ccc3[nH]nc(-c4cc(N5CCC(CN6CCC(F)(CN7CCN(c8c(F)cc9c(c8F)CN(C8CCC(=O)NC8=O)C9=O)CC7)CC6)CC5)ncn4)c3c2)CC1` (centres unmarked) [Compound 373, 3-{4,6-difluoro-5-[4-({4-fluoro-1-[(1-{6-[5-(1-methylcyclopropoxy)-1H-indazol-3-yl]pyrimidin-4-yl}piperidin-4-yl)methyl]piperidin-4-yl}methyl)piperazin-1-yl]-1-oxo-2,3-dihydro-1H-isoindol-2-yl}piperidine-2,6-dione] are < 10 nM and ≥ 70%.
With `CC1(Oc2ccc3n[nH]c(-c4cc(N5CC(OCC6(F)CCN(CC7CCN(c8ccc9c(c8F)CN(C8CCC(=O)NC8=O)C9=O)CC7)CC6)C5)ncn4)c3c2)CC1` (centres unmarked) [Compound 200, 3-[4-fluoro-5-[4-[[4-fluoro-4-[[1-[6-[5-(1-methylcyclopropoxy)-2H-indazol-3-yl]pyrimidin-4-yl]azetidin-3-yl]oxymethyl]-1-piperidyl]methyl]-1-piperidyl]-1-oxo-isoindolin-2-yl]piperidine-2,6-dione], the Dmax under setting [5] was ≥ 70%. Besides, the DC50 under setting [6] was < 10 nM.
Consider `COc1c(N2CCC(CN3CCN(CC4CCN(c5cc(-c6n[nH]c7cc(F)c(OC8(C)CC8)cc67)ncn5)CC4)C(C)(C)C3)CC2)ccc2c1CN(C1CCC(=O)NC1=O)C2=O` (centres unmarked) [Compound 359, 3-{5-[4-({4-[(1-{6-[6-fluoro-5-(1-methylcyclopropoxy)-1H-indazol-3-yl]pyrimidin-4-yl}piperidin-4-yl)methyl]-3,3-dimethylpiperazin-1-yl}methyl)piperidin-1-yl]-4-methoxy-1-oxo-2,3-dihydro-1H-isoindol-2-yl}piperidine-2,6-dione], for which the DC50 under setting [1] was < 10 nM. Also, under setting [2], the Dmax fell in the range of 50 to 70%.
As for `CC1(Oc2ccc3[nH]nc(-c4cc(N5CCN(CCN6CCC7(CN(c8ccc9c(c8F)CN(C8CCC(=O)NC8=O)C9=O)C7)C(F)(F)C6)CC5)ncn4)c3c2)CC1` (centres unmarked) [Compound 336, 3-(5-{5,5-difluoro-7-[2-(4-{6-[5-(1-methylcyclopropoxy)-1H-indazol-3-yl]pyrimidin-4-yl}piperazin-1-yl)ethyl]-2,7-diazaspiro[3.5]nonan-2-yl}-4-fluoro-1-oxo-2,3-dihydro-1H-isoindol-2-yl)piperidine-2,6-dione], the Dmax under setting [3] lay within 50 to 70%. For the same compound, under setting [4], the DC50 is < 10 nM.
With `CC1(Oc2cc3c(-c4cc(N5CCC(CC6(F)CCN(CC7CCN(c8ccc9c(c8F)CN(C8CCC(=O)NC8=O)C9=O)CC7)CC6)CC5)ncn4)n[nH]c3cc2F)CC1` (centres unmarked) [Compound 207, 3-[4-fluoro-5-[4-[[4-fluoro-4-[[1-[6-[6-fluoro-5-(1-methylcyclopropoxy)-1H-indazol-3-yl]pyrimidin-4-yl]-4-piperidyl]methyl]-1-piperidyl]methyl]-1-piperidyl]-1-oxo-isoindolin-2-yl]piperidine-2,6-dione], under setting [1], the DC50 is 10 to 50 nM. The Dmax under setting [2] fell in the range of 50 to 70%.
